Literature values in US20030003131A1, “Method for manufacture of free-flowing powder containing water-dispersible sterols” (priority 2001, published 2003).
Like-named read-outs stand apart in the source and are kept apart here.

Assays:
cholesterol absorption [1] = details: oil-free delivery system with emulsifier
cholesterol absorption [2] = tested on: cholesterol absorption
LDL cholesterol = details: 2.8 g sitostanol/day given as sitostanol ester in margarine

Compound: CC[C@H](CC[C@@H](C)[C@H]1CC[C@H]2[C@@H]3CC[C@H]4C[C@@H](O)CC[C@]4(C)[C@H]3CC[C@]12C)C(C)C [sitostanol]
- reduction of cholesterol absorption (cholesterol absorption [1]): ≤ 37%
- reduction of serum cholesterol (serum cholesterol; 1.5 g/day, subjects with severe hypercholesterolemia): 15%
- effect on serum cholesterol (serum cholesterol; 3 g/day, subjects with moderate hypercholesterolemia): no effect

Compound: CC[C@H](CC[C@@H](C)[C@H]1CC[C@H]2[C@@H]3CC=C4C[C@@H](O)CC[C@]4(C)[C@H]3CC[C@]12C)C(C)C [sitosterol]
- decrease of serum cholesterol levels (serum cholesterol; 3-9 g/day of powdered sitosterol, dose-response study): 12%
- reduction of serum cholesterol (serum cholesterol; doses of 5-18 g sitosterol/day): 16-20%

Compound: neomycin
- effect on cholesterol absorption (cholesterol absorption [2]; orally administered): reduces cholesterol absorption effectively

Compound: sitostanol ester
- reduction of LDL cholesterol (LDL cholesterol): 16%
- less effective at reducing cholesterol absorption compared to the unesterified sterol (cholesterol absorption [2]; humans, ester dissolved in dietary fat): 21%
